This note sets out measurements from patent US6579556B2, “Ambient stable beverage” (Lipton, division of Conopco, Inc., priority 2000, dated 2003).

Converted amounts (≈) assume the structure as drawn.

One assay concerns bacteria, Gluconobacter sp. 222. Put plainly: Bacteria experiments, growth after heat + pasteurisation adjunct. Type of assay: cell-based. Conditions: 0-100 ppm, Ready to Drink tea or synthetic soft drink pH 3.4, 2 minutes at temperature, growth measured visually at 14 days. As for the experimental part: Rows of 30 ml tubes containing 10 ml soft drink, pH 3.4, were equilibrated at the required temperature for 7 minutes in a water bath, before inoculation with 10^4 cells/ml of the bacteria, Gluconobacter sp. 222. Tubes were held at temperature for 2 minutes before being cooled rapidly in cold water for 5 minutes. Tubes were then incubated for 14 days at 25° C. to allow surviving bacteria to grow out. At 14 days growth was measured visually.
Take `CCCCCCCCCCCC(=O)O` [Lauric acid]: the “effect of heat+pasteurisation adjunct on bacteria” value is on record as “remarkable combined synergistic effect”.

Still in this assay, the particulars now being: 0-100 ppm, Ready to Drink tea or synthetic soft drink pH 3.4, low temperature, growth measured visually at 14 days.
As to `CCCCCCCCCCCC(=O)O` [Lauric acid], the “effect of pasteurisation adjunct at low temperature on growth” value is “little effect”.

The subject of another assay is yeast Saccharomyces cerevisiae X2180-1B. Put plainly: Fungicidal activity / MIC at 50° C. versus 30° C., yeast survival in YEPD broth pH 3.4. Type of assay: cell-based. Conditions: 30° C. As for the experimental part: In the table the minimum inhibitory concentration (MIC) is given for each compound as well as the molecular weight (M.W.), the logPoct and a rating of its importance. […] The logPoct, that is the logarithm of the partition coefficient of the relevant compound in octanol and thus a measure of its […], was determined using […]™ software from the CHEMOFFICE ULRA ENHANCED 2000™ software package (version 5.5) that is commercially available from CambridgeSoft.
(§1) YEPD contained glucose, 20 g/l, peptone 20 g/l and yeast extract 10 g/l. Rows of 30 ml tubes containing 10 ml YEPD, pH 3.4, were equilibrated at the required temperature for 7 minutes in a water bath, before inoculation with 10^4 cells/ml of the yeast Saccharomyces cerevisiae X2180-1B. Tubes were held at temperature for 10 minutes before being cooled rapidly in cold water for 5 minutes. Tubes were then incubated for 48 hours at 25° C. to allow surviving yeasts to grow out, and form discrete colonies.
as §1, §1, §1
On to `CCCCCCCCCCCC(=O)O` [Lauric acid], for which the “fungicidal activity at 30° C.” value is reported as “no fungicidal activity”.

Consider methyl decenoate, for which the “fungicidal activity at 30° C.” value is reported as “no fungicidal activity”.

The assay is the same for the next values; noted with them: 50° C.
Turning to `CCCCCCCCCCCC(=O)O` [Lauric acid], the “fungicidal activity when heated to 50° C.” value is listed as “significant fungicidal activity”.

On to methyl decenoate, for which the “fungicidal activity when heated to 50° C.” value is “significant fungicidal activity”.

The same assay, now with this note: Saccharomyces cerevisiae, read-out: MIC50.
Regarding `CC(C)C(=O)OCCOc1ccccc1` [2-Phenoxylethyl isobutyrate], the MIC stood at 0.1 mM (≈ 20.8 µg/mL).

The same assay, now with this note: Saccharomyces cerevisiae; minimum inhibitory concentration, 50° C.; read-out: MIC50.
Consider `CCCCCCCC=CC(=O)OCC` [Ethyl 2-decenoate], for which the MIC is 1 mM (≈ 198 µg/mL).

On to `CCCCCCCCCC(=O)OC` [Methyl decanoate], for which the MIC stood at 2 mM (≈ 373 µg/mL).

`CCCCCCCCC(=O)OC` [Methyl nonanoate]: the MIC was 2 mM (≈ 345 µg/mL).

As for `CCCCCCCCCCC(=O)OC` [Methyl undecanoate], the MIC amounted to 50 mM (≈ 10000 µg/mL).

Turning to `CC(=O)OC/C=C(\C)CCC=C(C)C` [Geranyl acetate], the MIC was 1 mM.

Consider `C=CCCCCCCCCC(=O)OCC` [Ethyl 10-undecenoate], for which the MIC was found to be 50 mM (≈ 10600 µg/mL).

For `CC=CCCCCCCCC(=O)OC` [Methyl-9-undecenoate], the MIC turned out to be 40 mM (≈ 7930 µg/mL).

Regarding `CC(=O)CC/C=C(\C)CCC=C(C)C` [Geranylacetone], the MIC turned out to be 0.5 mM (≈ 97.2 µg/mL).

As to `O=C(OCc1ccccc1)c1ccccc1` [Benzyl benzoate], the MIC worked out at 20 mM (≈ 4240 µg/mL).

Take `CCCCCC(=O)OCCc1ccccc1` [Phenethyl hexanoate]: the MIC was determined as 10 mM (≈ 2200 µg/mL).

For the molecule `CCCCCCCCCOC(C)=O` [Nonyl acetate], the MIC came to 5 mM.

`CCCCCCCCCCCC(=O)OC` [Methyl laurate]: the MIC turned out to be 40 mM (≈ 8570 µg/mL).

The assay is the same for the next values; noted with them: minimum inhibitory concentration, 50° C.
`CCCCCCCCCCCC=O` [Lauric aldehyde] gave an MIC50 of 0.2 mM (≈ 36.9 µg/mL).

In turn, `CCCCCCCCCCCCO` [Lauric alcohol] had an MIC50 of 0.1 mM (≈ 18.6 µg/mL).

The same assay, now with this note: minimum inhibitory concentration, 50° C., given as ppm.
In turn, `CCCCCCCCCCCC=O` [Lauric aldehyde] showed an MIC50 of 36 ppm.

In the case of `CCCCCCCCCCCCO` [Lauric alcohol], the MIC50 was found to be 18.6 ppm.

The same assay, now with this note: rating as pasteurisation adjunct.
Consider `CCCCCCCCCCCC=O` [Lauric aldehyde], for which the Importance entry is “High (High effects compounds, most preferred, generally showed at least a 5 fold decrease in MIC, minimum inhibitory concentration at 50 °C compared with 30° C.)”.

Turning to `CCCCCCCCCCCC(=O)O` [Lauric acid], the Importance entry was “High (High effects compounds, most preferred, generally showed at least a 5 fold decrease in MIC, minimum inhibitory concentration at 50 °C compared with 30° C.)”.

On to `CCCCCCCCCCCCO` [Lauric alcohol], for which the Importance result was “High (High effects compounds, most preferred, generally showed at least a 5 fold decrease in MIC, minimum inhibitory concentration at 50 °C compared with 30° C.)”.

As to `CCCCCCCC=CC(=O)OCC` [Ethyl 2-decenoate], the Importance entry was “High (High effects compounds, most preferred, generally showed at least a 5 fold decrease in MIC, minimum inhibitory concentration at 50 °C compared with 30° C.)”.

For `CCCCCCCCCC(=O)OC` [Methyl decanoate], the Importance result was “High (High effects compounds, most preferred, generally showed at least a 5 fold decrease in MIC, minimum inhibitory concentration at 50 °C compared with 30° C.)”.

Turning to `CCCCCCCCC(=O)OC` [Methyl nonanoate], the Importance result was “High (High effects compounds, most preferred, generally showed at least a 5 fold decrease in MIC, minimum inhibitory concentration at 50 °C compared with 30° C.)”.

As for `CCCCCCCCCCC(=O)OC` [Methyl undecanoate], the Importance entry was “High (High effects compounds, most preferred, generally showed at least a 5 fold decrease in MIC, minimum inhibitory concentration at 50 °C compared with 30° C.)”.

On to `CCCCCCCCCCCC(=O)OCCC(C)C` [Isoamyl laurate], for which the Importance entry was “Low”.

Regarding `CC(=O)OC/C=C(\C)CCC=C(C)C` [Geranyl acetate], the Importance entry is “High (High effects compounds, most preferred, generally showed at least a 5 fold decrease in MIC, minimum inhibitory concentration at 50 °C compared with 30° C.)”.

For the molecule `C=CCCCCCCCCC(=O)OCC` [Ethyl 10-undecenoate], the Importance result was “High (High effects compounds, most preferred, generally showed at least a 5 fold decrease in MIC, minimum inhibitory concentration at 50 °C compared with 30° C.)”.

`CC(C)C(=O)OCCOc1ccccc1` [2-Phenoxylethyl isobutyrate]: the Importance entry is “High (High effects compounds, most preferred, generally showed at least a 5 fold decrease in MIC, minimum inhibitory concentration at 50 °C compared with 30° C.)”.

Take `CC=CCCCCCCCC(=O)OC` [Methyl-9-undecenoate]: the Importance result is “High (High effects compounds, most preferred, generally showed at least a 5 fold decrease in MIC, minimum inhibitory concentration at 50 °C compared with 30° C.)”.

`CC(=O)CC/C=C(\C)CCC=C(C)C` [Geranylacetone]: the Importance result is “High (High effects compounds, most preferred, generally showed at least a 5 fold decrease in MIC, minimum inhibitory concentration at 50 °C compared with 30° C.)”.

Take `O=C(OCc1ccccc1)c1ccccc1` [Benzyl benzoate]: the Importance entry is “Mod”.

Regarding `CCCCCC(=O)OCCc1ccccc1` [Phenethyl hexanoate], the Importance result was “High (High effects compounds, most preferred, generally showed at least a 5 fold decrease in MIC, minimum inhibitory concentration at 50 °C compared with 30° C.)”.

Regarding `CCCCCCCCCOC(C)=O` [Nonyl acetate], the Importance entry is “High (High effects compounds, most preferred, generally showed at least a 5 fold decrease in MIC, minimum inhibitory concentration at 50 °C compared with 30° C.)”.

`CCCCCCCCCCCC(=O)OC` [Methyl laurate]: the Importance result is “High (High effects compounds, most preferred, generally showed at least a 5 fold decrease in MIC, minimum inhibitory concentration at 50 °C compared with 30° C.)”.

For a further assay the test system is unchanged. Put plainly: Ready to Drink tea experiments, yeast growth after heat + pasteurisation adjunct. In kind it is cell-based. Particulars: 0-200 ppm, Ready to Drink tea 0.14% tea pH 3.4, held at temperature 2 minutes, OD 600 nm at 14 days. As for the experimental part:
Rows of 30 ml tubes containing 10 ml RTD tea, pH 3.4, were equilibrated at the required temperature for 7 minutes in a water bath, before inoculation with 10^4 cells/ml of the yeast Saccharomyces cerevisiae […]-1B. Tubes were held at temperature for 2 minutes before being cooled rapidly in cold water for 5 minutes. Tubes were then incubated for 14 days at 25° C. to allow surviving yeasts to grow out. At 14 days growth was measured by optical density at 600 nm in x11 diluted samples. […] Rows of 30 ml tubes containing 10 ml RTD tea, pH 3.4, were equilibrated at the required temperature for 7 minutes in a water bath, before inoculation with 10^4 cells/ml of the yeast Saccharomyces cerevisiae […]-1B. Tubes were held at temperature for 2 minutes before being cooled rapidly in cold water for 5 minutes. Tubes were then incubated for 14 days at 25° C. to allow surviving yeasts to grow out. At 14 days growth was measured by optical density at 600 nm in x11 diluted samples. […] Rows of 30 ml tubes containing 10 ml RTD tea, pH 3.4, were equilibrated at the required temperature for 7 minutes in a water bath, before inoculation with 10^4 cells/ml of the yeast Saccharomyces cerevisiae […]-1B. Tubes were held at temperature for 2 minutes before being cooled rapidly in cold water for 5 minutes. Tubes were then incubated for 14 days at 25° C. to allow surviving yeasts to grow out. At 14 days growth was measured by optical density at 600 nm in x11 diluted samples. […] Rows of 30 ml tubes containing 10 ml RTD tea, pH 3.4, were equilibrated at the required temperature for 7 minutes in a water bath, before inoculation with 10^4 cells/ml of the yeast Saccharomyces cerevisiae […]-1B. Tubes were held at temperature for 2 minutes before being cooled rapidly in cold water for 5 minutes. Tubes were then incubated for 14 days at 25° C. to allow surviving yeasts to grow out. At 14 days growth was measured by optical density at 600 nm in x11 diluted samples. […] Rows of 30 ml tubes containing 10 ml RTD tea, pH 3.4, were equilibrated at the required temperature for 7 minutes in a water bath, before inoculation with 10^4 cells/ml of the yeast Saccharomyces cerevisiae […]-1B. Tubes were held at temperature for 2 minutes before being cooled rapidly in cold water for 5 minutes. Tubes were then incubated for 14 days at 25° C. to allow surviving yeasts to grow out. At 14 days growth was measured by optical density at 600 nm in x11 diluted samples. […] Rows of 30 ml tubes containing 10 ml RTD tea, pH 3.4, were equilibrated at the required temperature for 7 minutes in a water bath, before inoculation with 10^4 cells/ml of the yeast Saccharomyces cerevisiae […]-1B. Tubes were held at temperature for 2 minutes before being cooled rapidly in cold water for 5 minutes. Tubes were then incubated for 14 days at 25° C. to allow surviving yeasts to grow out. At 14 days growth was measured by optical density at 600 nm in x11 diluted samples. […] Rows of 30 ml tubes containing 10 ml RTD tea, pH 3.4, were equilibrated at the required temperature for 7 minutes in a water bath, before inoculation with 10^4 cells/ml of the yeast Saccharomyces cerevisiae […]-1B. Tubes were held at temperature for 2 minutes before being cooled rapidly in cold water for 5 minutes. Tubes were then incubated for 14 days at 25° C. to allow surviving yeasts to grow out. At 14 days growth was measured by optical density at 600 nm in x11 diluted samples. […] Rows of 30 ml tubes containing 10 ml RTD tea, pH 3.4, were equilibrated at the required temperature for 7 minutes in a water bath, before inoculation with 10^4 cells/ml of the yeast Saccharomyces cerevisiae […]-1B. Tubes were held at temperature for 2 minutes before being cooled rapidly in cold water for 5 minutes. Tubes were then incubated for 14 days at 25° C. to allow surviving yeasts to grow out. At 14 days growth was measured by optical density at […] in x11 diluted samples.
`CCCCCCCCCCCC=O` [Lauric aldehyde]: the “effect of heat+pasteurisation adjunct on yeast growth” value is given as “remarkable combined synergistic effect”.

`CCCCCCCCCCCC(=O)O` [Lauric acid]: the “effect of heat+pasteurisation adjunct on yeast growth” value was “remarkable combined synergistic effect”.

Regarding `CCCCCCCCCCCCO` [Lauric alcohol], the “effect of heat+pasteurisation adjunct on yeast growth” value was “remarkable combined synergistic effect”.

For the molecule `CCCCCCCC=CC(=O)OCC` [Ethyl 2-decenoate], the “effect of heat+pasteurisation adjunct on yeast growth” value is listed as “remarkable combined synergistic effect”.

Consider `CC(=O)OC/C=C(\C)CCC=C(C)C` [Geranyl acetate], for which the “effect of heat+pasteurisation adjunct on yeast growth” value is reported as “remarkable combined synergistic effect”.

For `CC(=O)CC/C=C(\C)CCC=C(C)C` [Geranylacetone], the “effect of heat+pasteurisation adjunct on yeast growth” value is listed as “remarkable combined synergistic effect”.

Staying with this assay, now noted: 0-200 ppm, Ready to Drink tea 0.14% tea pH 3.4, low temperature, OD 600 nm at 14 days.
For `CCCCCCCCCCCC=O` [Lauric aldehyde], the “effect of pasteurisation adjunct at low temperature on yeast growth” value (shortened to “effect … at low temperature on yeast growth”) is on record as “little effect”.

Turning to `CCCCCCCCCCCC(=O)O` [Lauric acid], the “effect … at low temperature on yeast growth” value is on record as “little effect”.

On to `CCCCCCCCCCCCO` [Lauric alcohol], for which the “effect … at low temperature on yeast growth” value is on record as “little effect”.

For `CCCCCCCC=CC(=O)OCC` [Ethyl 2-decenoate], the “effect … at low temperature on yeast growth” value is “little effect”.

Take `CC(=O)OC/C=C(\C)CCC=C(C)C` [Geranyl acetate]: the “effect … at low temperature on yeast growth” value is “little effect”.

As to `CC(=O)CC/C=C(\C)CCC=C(C)C` [Geranylacetone], the “effect … at low temperature on yeast growth” value is given as “little effect”.
